Assay results taken from patent US11406709B2, “Therapeutic and research application of PDCL3” (TRUSTEES OF BOSTON UNIVERSITY, priority 2014, dated 2022).
Structures can show the parent of a compound that is named as a salt. Residues, ends and D or L forms follow the SMILES beside them. *: point of attachment. Cbz = O=C(OCc1ccccc1)*

tested on: VEGFR-2; assay: In vitro transcription/translation of VEGFR-2; type: biochemical; conditions: not given
Experimental: FIG. 1A. HEK-293 cells expressing VEGFR-2 were transfected with different concentrations of C-terminus Myc-tagged PDCL3. After 48 hours cells were lysed and whole cell lysates (WCL) were blotted for VEGFR-2, PDCL3 and Hsp70 for loading control. Quantification of premature (newly synthesized and partially glycosylated VEGFR-2 corresponding to lower molecular weight) and mature (fully glycosylated) forms of VEGFR-2 is shown. Mean results of three independent experiments are shown. *P=0.04 and […]. FIG. 1B. Human umbilical vein endothelial cells (HUVECs) were transfected with control siRNA or PDCL3-siRNA. After 48 hours cells serum-starved for overnight followed by stimulation with VEGF for 10 minutes. Cells were lysed and whole cell lysates were blotted for phospho-Y1054-VEGFR-2, total VEGFR-2, PDCL3 and Hsp70 for loading control. FIG. 1C. Thermo-induced aggregation of VEGFR-2 was measured using PSA dye as described in the materials and method section. FIG. 1D. In vitro transcription/translation of VEGFR-2 in the absence or presence of exogenous recombinant PDCL3 was performed as described in the materials and method section and schematic of the procedure is shown. FIG. 1E. In vitro translated VEGFR-2 protein in the absence or presence of exogenous recombinant PDCL3 was blotted for VEGFR-2. FIG. 1F. […]

SMILES | yield of in vitro translated VEGFR-2
CC(C)C[C@@H](C=O)NC(=O)[C@H](CC(C)C)NC(=O)[C@H](CC(C)C)NC(=O)OCc1ccccc1 [MG132] (Cbz-Leu-Leu-Leu-aldehyde) | this effect of PDCL3 was further augmented

tested on: VEGFR-2; assay: Cycloheximide-chase / VEGF-induced downregulation of VEGFR-2; type: cell-based; conditions: PAE cells, cycloheximide 20 μg/ml, 90 min
Experimental: FIG. 2A. Illustrated is the schematic of treatment of cells with cycloheximide (CHX) and VEGF. PAE cells co-expressing VEGFR-2 with empty vector (pMSCV) or PDCL3 were incubated with CHX for 90 minutes followed by stimulation with VEGF for indicated times. Whole cell lysates was blotted for VEGFR-2 and loading control protein, PLCγ1. FIG. 2B. Shown are the quantification of the half-life of mature VEGFR-2 and pre-mature VEGFR-2 based on the VEGFR-2 blot from the panel FIG. 2A. FIGS. 2C-2D. PAE cells co-expressing VEGFR-2 with empty vector (pMSCV) or PDCL3 were stimulated with VEGF for indicated times and whole cell lysates were processed as panel FIG. 2A.
PAE cells expressing VEGFR-2 alone or together with PDCL3 were serum-starved for overnight followed by incubation of cells with serum-free DMEM medium containing cycloheximide (20 μg/ml, 90 min). Cells then were stimulated with VEGF for various times to downregulate cell surface VEGFR-2. Cells were lysed and whole cell lysates was blotted for VEGFR-2 using anti-VEGFR-2 antibody. For measuring half-life of PDCL3 and HA-tagged mutant PDCL3, cells were incubated with serum-free DMEM medium containing cycloheximide (20 μg/ml) for indicated times and cells were lysed and whole cell lysates was blotted for PDCL3.

SMILES | VEGFR-2 protein synthesis
C[C@@H]1C[C@@H]([C@H](O)CC2CC(=O)NC(=O)C2)C(=O)[C@@H](C)C1 [Cycloheximide] | inhibited VEGFR-2 protein synthesis

molecular target: T1, PDCL3 (Homo sapiens, UniProt Q9H2J4); assay: High throughput screening of LOPAC1280 for small molecule inhibitors of PDCL3; conditions: LOPAC1280, 1,280 pharmacologically active compounds
T1 sequence (Q9H2J4 1-239): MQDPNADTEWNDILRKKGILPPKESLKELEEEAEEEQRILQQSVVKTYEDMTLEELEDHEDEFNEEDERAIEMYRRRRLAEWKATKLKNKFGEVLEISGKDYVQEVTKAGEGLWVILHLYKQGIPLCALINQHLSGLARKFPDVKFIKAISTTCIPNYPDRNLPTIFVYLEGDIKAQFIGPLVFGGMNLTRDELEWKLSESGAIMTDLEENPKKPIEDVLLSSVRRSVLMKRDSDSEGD
From the text: (§1) Given that PDCL3 plays a fundamental role in maturation and folding of receptor tyrosine kinases (RTKs), such as VEGFR-2, and considering that activity of these RTKs are cornerstone of tumor growth and metastasis, it was decided to screen for small molecule inhibitors that could antagonize PDCL3 function in tumor cells. LOPAC1280 (a library of Pharmacologically Active Compounds), which is a collection of 1,280 pharmacologically active compounds, was used. The library is most commonly used to validate new drug discovery assays and characterize orphan targets. 16 lead compounds were identified as PDCL3 inhibitors and their potency and efficacy in inhibition of PDCL3 was validated. The structures of these 16 lead compounds, namely, Reserpine, DAPH, AC-93253 iodide, Emodin, Sunitinib malate, GW2974, Urapidil Hydrochloride, Mecamylamine hydrochloride, (−)-MK-801 hydrogen maleate, AGK2, Tyrphostin AG 112, Tyrphostin 23, Tyrphostin 51, I-Ome-Tyrophostin AG 538, and Isoliquiritgenin are provided herein at FIG. 14B.
as §1, with “validated. […] Chemical formulas for” for “validated. The structures of”, “these compounds” for “these 16 lead compounds, namely, Reserpine, DAPH, AC-93253 iodide, Emodin, Sunitinib malate, GW2974, Urapidil Hydrochloride, Mecamylamine hydrochloride, (−)-MK-801 hydrogen maleate, AGK2, Tyrphostin AG 112, Tyrphostin 23, Tyrphostin 51, I-Ome-Tyrophostin AG 538, and Isoliquiritgenin”, “herein in” for “herein at”

SMILES | identified as PDCL3 inhibitor / specifically targeting PDCL3
CC12NC(Cc3ccccc31)c1ccccc12.O=C(O)/C=C/C(=O)O (single isomer, unassigned; (-)) [(−)-MK-801 hydrogen maleate, 1-Methyl-16-azatetracyclo[7.6.1.02,7.010,15]hexadeca-2,4,6,10,12,14-hexaene (2E)-2-butenedioate (1:1)] | identified as specifically targeting PDCL3
CC[n+]1c(/C=C/C=C2/N(C)c3ccccc3C2(C)C)sc2ccccc21.[I-] [AC-93253 iodide, 3-Ethyl-2-[(1E,3E)-3-(1,3,3-trimethyl-1,3-dihydro-2H-indol-2-ylidene)-1-propen-1-yl]-1,3-benzothiazol-3-ium iodide] | identified as specifically targeting PDCL3
N#C/C(=C\c1ccc(-c2cc(Cl)ccc2Cl)o1)C(=O)Nc1cccc2ncccc12 [AGK2, (2E)-2-Cyano-3-[5-(2,5-dichlorophenyl)-2-furyl]-N-(5-quinolinyl)acrylamide] | identified as specifically targeting PDCL3
O=C1NC(=O)c2cc(Nc3ccccc3)c(Nc3ccccc3)cc21 [DAPH, 5,6-Dianilino-1H-isoindole-1,3(2H)-dione] | identified as specifically targeting PDCL3
Cc1cc(O)c2c(c1)C(=O)c1cc(O)cc(O)c1C2=O [Emodin, 1,3,8-Trihydroxy-6-methyl-9,10-anthraquinone] | identified as specifically targeting PDCL3
CN(C)c1cc2c(Nc3ccc4c(cnn4Cc4ccccc4)c3)ncnc2cn1 [GW2974, N4-(1-Benzyl-1H-indazol-5-yl)-N6,N6-dimethylpyrido[3,4-d]pyrimidine-4,6-diamine] | identified as specifically targeting PDCL3
COc1cc(C=C(C#N)C(=O)c2ccc(O)c(O)c2)cc(I)c1O [I-Ome-Tyrophostin AG 538, α-Cyano-(3-methoxy-4-hydroxy-5-iodocinnamoyl)-(3′,4′-dihydroxyphenyl)ketone] | identified as specifically targeting PDCL3
O=C(/C=C/c1ccc(O)cc1)c1ccc(O)cc1O [Isoliquiritgenin, (E)-1-(2,4-dihydroxyphenyl)-3-(4-hydroxyphenyl)prop-2-en-1-one] | identified as specifically targeting PDCL3
CNC1(C)C2CCC(C2)C1(C)C.Cl (centres unmarked) [Mecamylamine hydrochloride, N,2,3,3-Tetramethylbicyclo[2.2.1]heptan-2-amine hydrochloride (1:1)] | identified as specifically targeting PDCL3
COC(=O)[C@H]1[C@H]2C[C@@H]3c4[nH]c5cc(OC)ccc5c4CCN3C[C@H]2C[C@@H](OC(=O)c2cc(OC)c(OC)c(OC)c2)[C@@H]1OC [Reserpine, Methyl (3β,16β,17α,18β,20α)-11,17-dimethoxy-18-[(3,4,5-trimethoxybenzoyl)oxy]yohimban-16-carboxylate] | identified as specifically targeting PDCL3
CCN(CC)CCNC(=O)c1c(C)[nH]c(/C=C2\C(=O)Nc3ccc(F)cc32)c1C.O=C(O)C[C@H](O)C(=O)O [Sunitinib malate, (2S)-2-Hydroxysuccinic acid-N-[2-(diethylamino)ethyl]-5-[(Z)-(5-fluoro-2-oxo-1,2-dihydro-3H-indol-3-ylidene)methyl]-2,4-dimethyl-1H-pyrrole-3-carboxamide (1:1)] | identified as specifically targeting PDCL3
N#CC(C#N)=Cc1ccc(O)c(O)c1 [Tyrphostin 23, (3,4-Dihydroxybenzylidene)malononitrile] | identified as specifically targeting PDCL3
N#CC(C#N)=C(N)/C(C#N)=C/c1cc(O)c(O)c(O)c1 [Tyrphostin 51, (3Z)-2-Amino-4-(3,4,5-trihydroxyphenyl)-1,3-butadiene-1,1,3-tricarbonitrile] | identified as specifically targeting PDCL3
N#CC(C#N)=C(N)/C(C#N)=C/c1ccc(O)cc1 [Tyrphostin AG 112, (3Z)-2-Amino-4-(4-hydroxyphenyl)-1,3-butadiene-1,1,3-tricarbonitrile] | identified as specifically targeting PDCL3
COc1ccccc1N1CCN(CCCNc2cc(=O)n(C)c(=O)n2C)CC1 [Urapidil Hydrochloride, 6-({3-[4-(2-Methoxyphenyl)-1-piperazinyl]propyl}amino)-1,3-dimethyl-2,4(1H,3H)-pyrimidinedione] | identified as specifically targeting PDCL3
